Measured values: patent US9315811B2, “Methods for modulating kallikrein (KLKB1) expression” (Ionis Pharmaceuticals, Inc., priority 2011, dated 2016)
Oligonucleotides are written 5' to 3', each unit as a sugar letter and its base; * is a phosphorothioate linkage, no mark a phosphodiester; rarer units and linkages stand in square brackets, end groups in braces. Plain capitals give the bases only. e = 2'-O-(2-methoxyethyl) (MOE); [5mC] = 5-methylcytosine; d = 2'-deoxy (DNA)

Columns and labels:
Kallikrein mRNA [1] = assay: Liver RT-PCR analysis of kallikrein mRNA (Example 9); format: in vivo, mouse; details: for Percent inhibition of kallikrein mRNA expression compared to the untreated PBS control: all groups ISIS 461756 12.5 mg/kg twice a week, ASO 40 mg/kg or PBS s.c. twice a week 3 weeks
Method: (§1) One group of 8 mice was treated with 40 mg/kg ISIS 482584 administered subcutaneously twice a week for 3 weeks (weekly dose of 80 mg/kg). A second group of 8 mice was treated with 40 mg/kg of the control oligonucleotide, ISIS 141923, administered subcutaneously twice a week for 3 weeks (weekly dose of 80 mg/kg). A third group of 8 mice was treated with PBS administered subcutaneously twice a week for 3 weeks. On day 14, all the groups were treated with 12.5 mg/kg ISIS 461756 administered subcutaneously twice a week for 3 weeks (weekly dose of 25 mg/kg). A control group of mice was treated with PBS administered subcutaneously twice a week for 3 weeks but was not administered ISIS 461756.
(§2) At the end of the treatment period, all the groups were injected with 30 mg/kg of Evans Blue solution into the tail vein. The mice were sacrificed 30 min after the Evans Blue solution administration and colons, feet, ears, and intestines were harvested. The liver was also harvested for RNA analysis.
RNA was isolated from the liver for RT-PCR analysis of C1-INH and kallikrein mRNAs. The primer probe set for C1-INH is RTS3218 (forward sequence […], designated herein as SEQ ID NO: 24; reverse sequence […], designated herein as SEQ ID NO: 25; probe sequence […], designated herein as SEQ ID NO: 26). The primer probe set for kallikrein is RTS3287 (forward sequence […], designated herein as SEQ ID NO: 27; reverse sequence […], designated herein as SEQ ID NO: 28; probe sequence […], designated herein as SEQ ID NO: 29). The results are presented in Table 20 as percent inhibition compared to the PBS control not treated with ISIS 461756.

C1-INH mRNA = assay: Liver RT-PCR analysis of C1-INH mRNA (Example 9); format: in vivo, mouse
Method: as §1, §2
RNA was isolated from the liver for RT-PCR analysis of C1-INH and kallikrein mRNAs. The primer probe set for C1-INH is RTS3218 (forward sequence […], designated herein as SEQ ID NO: 24; reverse sequence […], designated herein as SEQ ID NO: 25; probe sequence […], designated herein as SEQ ID NO: 26). […]

mouse kallikrein mRNA = assay: Antisense inhibition of murine kallikrein mRNA in mouse primary hepatocytes (Example 1); format: cell-based
Method: Antisense oligonucleotides targeting a murine kallikrein nucleic acid were tested for their effects on kallikrein mRNA in vitro. Cultured mouse primary hepatocytes at a density of 10,000 cells per well were transfected using Cytofectin reagent with 12.5 nM, 25 nM, 50 nM, 100 nM, or 200 nM of antisense oligonucleotide. After a treatment period of approximately 24 hours, RNA was isolated from the cells and mouse kallikrein mRNA levels were measured by quantitative real-time PCR using the murine primer probe set RTS3313 (forward sequence […], designated herein as SEQ ID NO: 21; reverse sequence […], designated herein as SEQ ID NO: 22; probe sequence […], designated herein as SEQ ID NO: 23). Kallikrein mRNA levels were adjusted according to total RNA content, as measured by RIBOGREEN.
The chimeric antisense oligonucleotides were designed as 5-10-5 MOE gapmers. The gapmers are 20 nucleotides in length, wherein the central gap segment is comprised of ten 2′-deoxynucleosides and is flanked on both sides (in the 5′ and 3′ directions) by wings comprising five nucleosides each. Each nucleoside in the 5′ wing segment and each nucleoside in the 3′ wing segment has a 2′-MOE modification. The internucleoside linkages throughout each gapmer are phosphorothioate (P═S) linkages. All cytosine residues throughout each gapmer are 5-methylcytosines.
ISIS 482584 ([…]; incorporated herein as SEQ ID NO: 40), which was one of the antisense oligonucleotides tested in the assay, is targeted to SEQ ID NO: 11 (GENBANK Accession No. NM_008455.2) with a target start site of 1586 and a target stop site of 1605.

mice = assay: Evans Blue vascular permeability induced by ISIS 461756 (Example 9); details: mouse, in vivo
Method: Vascular permeability induced by ISIS 461756, an antisense oligonucleotide which targets murine C1 inhibitor mRNA, increases vascular permeability in mice and replicates the pathology of hereditary angioedema. The effect of ISIS 482584 on this model was evaluated.
as §1
At the end of the treatment period, all the groups were injected with 30 mg/kg of Evans Blue solution into the tail vein. […]
The harvested tissues from the feet, colon, and intestines were placed in formamide solution overnight to leach out the Evans Blue dye. […] The color intensity of the dye-infused formamide solution was then measured at OD600nm. […]

[2] = system: high molecular weight kininogen (HMWK); assay: Western blot quantification of HMWK and HMWK cleavage product by densitometer (Example 5); format: in vivo, mouse; details: vs PBS control, dose-dependent
Method: All the groups were then injected with 30 mg/kg of Evans Blue solution in the tail vein. The mice were sacrificed 30 min after the Evans Blue solution administration and colons, feet, and ears were harvested and examined for permeability defects. Blood samples were taken through cardiac puncture.
Treatment with kallikrein antisense oligonucleotide results in stabilization of HMWK. Thus, vascular permeability is reduced in ISIS 482584-treated groups in a dose-dependent manner. […] Thus, reduced HMWK is caused by kallikrein cleavage of HMWK into cleavage products (including bradykinin and HKa). Data are presented in Intensity Units as measured by densitometer.

Kallikrein mRNA [3] = assay: Kallikrein mRNA and protein expression in mice after subcutaneous ASO (Example 1); format: in vivo, mouse; details: 3 weeks
Method: C57BL/6J-Tyrc-2J mice were treated with 2.5 mg/kg, 5.0 mg.kg, 10.0 mg/kg, 20.0 mg/kg, 40.0 mg/kg, or 80.0 mg/kg (corresponding to 5.0 mg/kg, 10.0 mg/kg, 20.0 mg/kg, 40 mg/kg, 80 mg/kg, or 160 mg/kg per week) of ISIS 482584 administered subcutaneously twice a week for 3 weeks. […] Kallikrein mRNA was reduced by greater than 90% inhibition at a dose of 160 mg/kg per week.

Substance	Percent inhibition of kallikrein mRNA expression compared to the untreated PBS control (Kallikrein mRNA [1])	C1-INH mRNA expression (C1-INH mRNA)	kallikrein expression (Kallikrein mRNA [1])	% inhibition (mouse kallikrein mRNA; 12.5 nM)	% inhibition (mouse kallikrein mRNA; 25.0 nM)	% inhibition (mouse kallikrein mRNA; 50.0 nM)	% inhibition (mouse kallikrein mRNA; 100.0 nM)	% inhibition (mouse kallikrein mRNA; 200.0 nM)	vascular permeability induced by ISIS 461756 (mice)	HMWK levels [2]	Kallikrein mRNA inhibition (Kallikrein mRNA [3]; 160 mg/kg per week s.c.)	Kallikrein mRNA and protein expression (Kallikrein mRNA [3]; 5.0-160 mg/kg per week s.c.)
ISIS 141923: control oligonucleotide, a 5-10-5 MOE gapmer with no known murine target; CCTTCCCTGAAGGTTCCTCC (SEQ ID NO: 42) (sugars from the 5' end e5 d10 e5, backbone and methylation of C not given here) [reference compound]	0%	–	–	–	–	–	–	–	–	–	–	–
ISIS 461756: 5-10-5 MOE gapmer antisense oligonucleotide which targets murine C1 inhibitor mRNA; AAAGTGGTTGATACCCTGGG (SEQ ID NO: 41) (sugars from the 5' end e5 d10 e5, backbone and methylation of C not given here) [reference compound]	0%	significantly reduced	–	–	–	–	–	–	–	–	–	–
ISIS 482584: 5-10-5 MOE gapmer antisense oligonucleotide targeting murine kallikrein; GGCATATTGGTTTTTGGAAT (SEQ ID NO: 40) (antisense eG*eG*e[5mC]*eA*eT*dA*dT*dT*dG*dG*dT*dT*dT*dT*dT*eG*eG*eA*eA*eT)	78%	–	significantly reduced	0%	36%	17%	60%	83%	prevented vascular permeability	higher levels of HMWK	greater than 90%	reduced in a dose dependent manner
